Results taken from patent US12052991B2, “Substituted pyridinyloxybenzenes and salts thereof and use thereof as herbicidal agents” (Bayer Aktiengesellschaft, priority 2018, dated 2024).

What was measured:
Type in all cases: in vivo
[1] = tested on: Matricaria inodora (MATIN); experiment: Herbicidal pre-emergence action, test C (Table C7); settings: dosage 1280 g/ha; visual scoring after about 3 weeks; 100% = plants have died, 0% = like control plants
Method in brief: (§1)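 % herbicidal effect, visual, vs untreated; 0% = as control, 100% = plants dead. Scored ~3 wk post-application. Rate 1280 or 320 g/ha onto covering soil pre-emergence.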

Poa annua (POAAN) [2] = experiment: Herbicidal post-emergence action (Table B3); settings: rated visually after about 3 weeks, 100% = plants have died, 0% = like control plants
Method in brief: (§2)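 Greenhouse pot-grown weeds in sandy loam, sprayed at the one-leaf stage (2–3 weeks post-sowing) with WP or EC formulations plus 0.5% additive at 600 l/ha water, at 1280 or 320 g/ha. Visual % activity versus untreated controls rated about 3 weeks later (100% = dead).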

Poa annua (POAAN) [3] = experiment: Herbicidal pre-emergence action, test C (Table C3); settings: visual scoring after about 3 weeks, 100% = plants have died, 0% = like control plants
Method in brief: as §1

[4] = tested on: Amaranthus retroflexus (AMARE); experiment: Herbicidal post-emergence action (Table B6); settings: visual rating about 3 weeks after treatment, 100% = plants have died, 0% = like control plants
Method in brief: as §2

[5] = tested on: Echinochloa crus-galli (ECHCG); experiment: Herbicidal post-emergence action (Table B1); settings: rated visually after about 3 weeks, 100% = plants have died, 0% = like control plants
Method in brief: as §2

[6] = tested on: Digitaria sanguinalis (DIGSA); experiment: Herbicidal post-emergence action (Table B10); settings: dosage 1280 g/ha; visual rating about 3 weeks after treatment; 100% = plants have died, 0% = like control plants
Method in brief: as §2

Veronica persica (VERPE) [7] = experiment: Herbicidal post-emergence action (Table B12); settings: visual rating about 3 weeks after treatment, 100% = plants have died, 0% = like control plants
Method in brief: as §2

Stellaria media (STEME) [8] = experiment: Herbicidal post-emergence action (Table B8); settings: visual rating about 3 weeks after treatment, 100% = plants have died, 0% = like control plants
Method in brief: as §2

[9] = tested on: harmful plants ABUTH, AMARE, ECHCG, LOLRI, MATIN, POAAN, SETVI, STEME, ALOMY, DIGSA, KCHSC and VERPE; experiment: Herbicidal post-emergence action, summary of Tables B1-B12; settings: application rate of 1280 or 320 g of active ingredient per hectare; summary in words
Method in brief: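 Greenhouse weeds in sandy loam treated post-emergence at the one-leaf stage, 2–3 weeks after sowing, with WP or EC formulations sprayed with 0.5% additive at 600 L/ha water, 1280 or 320 g/ha. Damage rated visually after about 3 weeks versus untreated controls (0% = like control, 100% = dead).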

[10] = tested on: Echinochloa crus-galli (ECHCG); experiment: Herbicidal pre-emergence action, test C (Table C1); settings: dosage 1280 g/ha; visual scoring after about 3 weeks; 100% = plants have died, 0% = like control plants
Excerpt: (§3) Seeds of mono- and dicotyledonous weed plants were placed in plastic pots in sandy loam soil (doubly sown with one species each of mono- or dicotyledonous weed plants per pot) and covered with soil. The compounds of the invention, formulated in the form of wettable powders (WP) or as emulsion concentrates (EC), were then applied onto the surface of the covering soil as aqueous suspension or emulsion with addition of 0.5% additive at a water application rate of 600 liters per hectare (converted). After the treatment, the pots were placed in a greenhouse and kept under good growth conditions for the test plants. After about 3 weeks, the effect of the preparations was scored visually in comparison with untreated controls as percentages. For example, 100% activity=the plants have died, 0% activity=like control plants. Tables C1 to C12 below show the effects of selected compounds of the general formula (I) according to Table 1 on various harmful plants and an application rate corresponding to 1280 or 320 g/ha, which were obtained by the experimental procedure mentioned above.

[11] = tested on: Abutilon theophrasti (ABUTH); experiment: Herbicidal post-emergence action (Table B5); settings: rated visually after about 3 weeks, 100% = plants have died, 0% = like control plants
Method in brief: as §2

[12] = tested on: Alopecurus myosuroides (ALOMY); experiment: Herbicidal pre-emergence action, test C (Table C9); settings: visual scoring after about 3 weeks, 100% = plants have died, 0% = like control plants
Excerpt: as §3

[13] = tested on: Amaranthus retroflexus (AMARE); experiment: Herbicidal pre-emergence action, test C (Table C6); settings: visual scoring after about 3 weeks, 100% = plants have died, 0% = like control plants
Method in brief: as §1

Veronica persica (VERPE) [14] = experiment: Herbicidal pre-emergence action, test C (Table C12); settings: dosage 1280 g/ha, visual scoring vs untreated controls
Method in brief: as §1

[15] = tested on: Alopecurus myosuroides (ALOMY); experiment: Herbicidal post-emergence action (Table B9); settings: rated visually after about 3 weeks, 100% = plants have died, 0% = like control plants
Method in brief: as §2

[16] = tested on: Abutilon theophrasti (ABUTH); experiment: Herbicidal pre-emergence action, test C (Table C5); settings: visual scoring after about 3 weeks, 100% = plants have died, 0% = like control plants
Method in brief: as §1

[17] = tested on: harmful plants ABUTH, AMARE, ECHCG, LOLRI, MATIN, POAAN, SETVI, STEME, ALOMY, DIGSA, KCHSC and VERPE; experiment: Herbicidal pre-emergence action (test C), summary of Tables C1-C12; settings: application rate of 1280 or 320 g of active ingredient per hectare; summary in words
Method in brief: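 Pre-emergence pot test in sandy loam: WP or EC formulations were sprayed onto the covering soil with 0.5% additive at 600 L/ha water, at 1280 or 320 g/ha. Plants were kept in the greenhouse, and activity was rated visually about 3 weeks later as % versus untreated controls (100% = dead).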

Setaria viridis (SETVI) = experiment: Herbicidal pre-emergence action, test C (Table C4); settings: dosage 1280 g/ha; visual scoring after about 3 weeks; 100% = plants have died, 0% = like control plants
Method in brief: as §1

Bassia scoparia (KCHSC) [18] = experiment: Herbicidal post-emergence action (Table B11); settings: visual rating about 3 weeks after treatment, 100% = plants have died, 0% = like control plants
Method in brief: as §2

[19] = tested on: Digitaria sanguinalis (DIGSA); experiment: Herbicidal pre-emergence action, test C (Table C10); settings: dosage 1280 g/ha; visual scoring after about 3 weeks; 100% = plants have died, 0% = like control plants
Method in brief: as §1

Stellaria media (STEME) [20] = experiment: Herbicidal pre-emergence action, test C (Table C8); settings: visual scoring after about 3 weeks, 100% = plants have died, 0% = like control plants
Method in brief: as §1

Bassia scoparia (KCHSC) [21] = experiment: Herbicidal pre-emergence action, test C (Table C11); settings: visual scoring vs untreated controls
Excerpt: as §3

FC(F)c1cc(-c2ccccc2Oc2ccccn2)on1 [Example 1-38]
90%: Post-emergence action against Echinochloa crus-galli (ECHCG) ([5]; 320 g/ha) | Pre-emergence action against Alopecurus myosuroides (ALOMY) ([12]; dosage 320 g/ha) | Post-emergence action against Bassia scoparia (KCHSC) (Bassia scoparia (KCHSC) [18]; dosage 320 g/ha)
100%: Pre-emergence action against Matricaria inodora (MATIN) [1] | Post-emergence action against Poa annua (POAAN) (Poa annua (POAAN) [2]; 320 g/ha) | Post-emergence action against Poa annua (POAAN) (Poa annua (POAAN) [2]; 1280 g/ha) | Pre-emergence action against Poa annua (POAAN) (Poa annua (POAAN) [3]; dosage 320 g/ha) | Pre-emergence action against Poa annua (POAAN) (Poa annua (POAAN) [3]; dosage 1280 g/ha) | Post-emergence action against Amaranthus retroflexus (AMARE) ([4]; dosage 320 g/ha) | Post-emergence action against Amaranthus retroflexus (AMARE) ([4]; dosage 1280 g/ha) | Post-emergence action against Echinochloa crus-galli (ECHCG) ([5]; 1280 g/ha) | Post-emergence action against Digitaria sanguinalis (DIGSA) [6] | Post-emergence action against Veronica persica (VERPE) (Veronica persica (VERPE) [7]; dosage 320 g/ha) | Post-emergence action against Veronica persica (VERPE) (Veronica persica (VERPE) [7]; dosage 1280 g/ha) | Post-emergence action against Stellaria media (STEME) (Stellaria media (STEME) [8]; dosage 320 g/ha) | Post-emergence action against Stellaria media (STEME) (Stellaria media (STEME) [8]; dosage 1280 g/ha) | Pre-emergence action against Echinochloa crus-galli (ECHCG) [10] | Post-emergence action against Abutilon theophrasti (ABUTH) ([11]; 320 g/ha) | Post-emergence action against Abutilon theophrasti (ABUTH) ([11]; 1280 g/ha) | Pre-emergence action against Alopecurus myosuroides (ALOMY) ([12]; dosage 1280 g/ha) | Pre-emergence action against Amaranthus retroflexus (AMARE) ([13]; dosage 320 g/ha) | Pre-emergence action against Amaranthus retroflexus (AMARE) ([13]; dosage 1280 g/ha) | Pre-emergence action against Veronica persica (VERPE) (Veronica persica (VERPE) [14]) | Post-emergence action against Alopecurus myosuroides (ALOMY) ([15]; 320 g/ha) | Post-emergence action against Alopecurus myosuroides (ALOMY) ([15]; 1280 g/ha) | Pre-emergence action against Abutilon theophrasti (ABUTH) ([16]; dosage 320 g/ha) | Pre-emergence action against Abutilon theophrasti (ABUTH) ([16]; dosage 1280 g/ha) | Pre-emergence action against Setaria viridis (SETVI) (Setaria viridis (SETVI)) | Post-emergence action against Bassia scoparia (KCHSC) (Bassia scoparia (KCHSC) [18]; dosage 1280 g/ha) | Pre-emergence action against Digitaria sanguinalis (DIGSA) [19] | Pre-emergence action against Stellaria media (STEME) (Stellaria media (STEME) [20]; dosage 320 g/ha) | Pre-emergence action against Stellaria media (STEME) (Stellaria media (STEME) [20]; dosage 1280 g/ha) | Pre-emergence action against Bassia scoparia (KCHSC) (Bassia scoparia (KCHSC) [21]; dosage 320 g/ha) | Pre-emergence action against Bassia scoparia (KCHSC) (Bassia scoparia (KCHSC) [21]; dosage 1280 g/ha)
very good herbicidal activity: herbicidal activity against the harmful plants of Tables B1-B12 in post-emergence treatment [9] | herbicidal activity against the harmful plants of Tables C1-C12 in pre-emergence treatment [17]
